Patent publication US6533767B2, “Methods for enhancing fluid flow through an obstructed vascular site, and systems and kits for use in practicing the same” (Corazon Technologies, Inc., priority 2000, dated 2003)

How the values were obtained:
[1] = Solution containing surfactant and acid components, effect on cholesterol crystals; assay type: physicochemical; details: SDS 1%; combination with 0.1N HCl pH 1.0, isotonic (300 mOsmol)
Method: A solution of sodium dodecyl sulfate (SDS) (a.k.a. sodium lauryl sulfate) (1%) and 0.1N hydrochloric acid (pH 1.0) made isotonic (300 mOsmol) with sodium chloride was prepared and compared with a solution of sodium dodecyl sulfate solution (1%). […] This combination solution can be buffered with sodium bicarbonate (NaHCO3) in the same manner that the hydrochloric acid solution is buffered with NaHCO3, as described in the specification supra.

[2] = In vitro cholesterol dissolution; assay type: physicochemical; details: for effectiveness in solvating / dissolving crystalline cholesterol: 0.1 grams cholesterol in 50 mLs 1% surfactant solution; for cholesterol crystal presence or absence and crystal morphology (light microscopy): 0.1 grams cholesterol in 50 mLs surfactant solution, agitation up to 1 hour, 200x magnification, time as in value
Method: Dissolution of cholesterol was examined in different solutions of bile salts, non-ionic, and ionic surfactants. Solutions of bile salts were prepared as follows: 0.5% solutions of cholic, dehydrocholic, deoxycholic, lithocholic acids were made by dissolving 0.5 grams of the free acid powders in 100 mL H2O previously adjusted to pH=12 with sodium hydroxide. Solutions were then adjusted to pH=7.5 with HCl. 1% surfactant solutions were made by dilution of concentrated stock solutions: Benzalkonium chloride, nonoxynol-9, sodium dodecyl sulfate, were prepared immediately prior to use. Dissolution studies were performed by adding 0.1 grams cholesterol powdered crystals to 50 mLs of the above surfactants with agitation on a rocker table for 1 hour. Solutions were then examined under light microscopy 200× magnification and cholesterol crystal presence or absence and crystal morphology recorded for each solution.

[3] = In vitro thrombus removal in cadaveric femoral arteries; details: 1% solution, approximately 60 cc per treatment over a 10 minute interval
Method: Fresh cadaveric femoral arteries which contained soft clots partially occluding the. vessel lumen were used. […] Vessels were treated with a 1% surfactant solution of sodium dodecyl sulfate (SDS, Sigma chemicals), prepared immediately prior to use. Treatment consisted of injection of surfactant through a 35 cc male luer syringe and flow characteristics recorded.

| Molecule | micelle formation around cholesterol crystals [1] | effectiveness in solvating / dissolving crystalline cholesterol [2] | cholesterol crystal presence or absence and crystal morphology (light microscopy) [2] | flow through vessel after treatment [3] | removal of soft thrombus [3] | crystal dissolution ([2]; by 1 hour) |
| --- | --- | --- | --- | --- | --- | --- |
| CCCCCCCCCCCCOS(=O)(=O)[O-].[Na+] [Sodium dodecyl sulfate, sodium dodecyl sulfate] | formed micelles around cholesterol crystals making the cholesterol crystals water soluble | most effective in solvating | no free crystals were observed 5 minutes after cholesterol addition | Flow was reestablished in all samples | effective in removing soft thrombus from occluded femoral arteries | – |
| Benzalkonium chloride | – | appeared to dissolve most of the crystalline cholesterol | still crystals apparent after 10 minutes | – | – | approximately 50% |
| nonoxynol-9 | – | – | little or no observable effect on the crystal structure | – | – | – |
